Drawing on ChEMBL document CHEMBL5137038, “Novel quinoline-based derivatives: A new class of PDE4B inhibitors for adjuvant-induced arthritis” (Eur J Med Chem, 2022), this text covers IC50 and inhibition for 29 compounds.

In the first assay the target is 3',5'-cyclic-AMP phosphodiesterase 4B (Homo sapiens, UniProt Q07343). Nature of the assay: Inhibition of PDE4B (unknown origin) using […] as substrate incubated for 1 hr by PDElight HTS cAMP phosphodiesterase assay.
Chain of 3',5'-cyclic-AMP phosphodiesterase 4B (Q07343 whole entry): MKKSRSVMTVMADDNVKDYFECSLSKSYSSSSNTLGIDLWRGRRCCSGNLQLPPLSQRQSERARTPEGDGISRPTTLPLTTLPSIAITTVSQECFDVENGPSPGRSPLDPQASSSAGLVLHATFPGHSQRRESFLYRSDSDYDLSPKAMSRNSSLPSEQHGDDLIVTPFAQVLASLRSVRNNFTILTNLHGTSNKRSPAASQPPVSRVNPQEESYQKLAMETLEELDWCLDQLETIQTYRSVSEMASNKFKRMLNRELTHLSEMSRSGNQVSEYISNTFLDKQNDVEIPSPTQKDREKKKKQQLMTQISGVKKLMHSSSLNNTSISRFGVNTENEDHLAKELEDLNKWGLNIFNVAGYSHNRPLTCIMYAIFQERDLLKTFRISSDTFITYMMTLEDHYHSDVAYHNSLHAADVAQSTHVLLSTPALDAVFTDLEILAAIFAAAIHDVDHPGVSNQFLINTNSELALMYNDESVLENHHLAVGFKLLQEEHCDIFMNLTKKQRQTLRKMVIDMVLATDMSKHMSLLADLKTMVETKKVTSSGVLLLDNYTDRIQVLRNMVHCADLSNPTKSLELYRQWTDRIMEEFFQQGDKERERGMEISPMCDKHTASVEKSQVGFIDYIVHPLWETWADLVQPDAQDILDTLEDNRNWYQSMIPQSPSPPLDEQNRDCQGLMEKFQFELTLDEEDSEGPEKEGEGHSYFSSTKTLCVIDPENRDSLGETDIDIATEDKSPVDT
Conditions: not given
In general, IC50 refers to the point on the concentration scale where inhibition reaches its midpoint. Read a low IC50 as greater potency. On to `CC(C)c1cc(C(C)C)c(S(=O)(=O)Nc2cccc(NS(=O)(=O)c3cccc4cccnc34)c2)c(C(C)C)c1`, for which the IC50 stood at 0.94 µM.

The next assay relates to RAW264.7. Kind of assay: Inhibition of LPS induced NO production in mouse RAW264.7 cells preincubated for 1 hr followed by LPS addition and measured after 24 hrs by Griess reagent based assay.
Conditions: not given
It is filed as functional, cell-based.
The compound `COc1ccc2c(c1)c(CC(=O)O)c(C)n2C(=O)c1ccc(Cl)cc1` [INDOMETHACIN] showed an IC50 of 34.3 µM.

A further assay concerns RAW264.7. Nature of the assay: Inhibition of LPS induced NO production in mouse RAW264.7 cells at 30 uM preincubated for 1 hr followed by LPS addition and measured after 24 hrs by Griess reagent based assay relative to control. The format is functional. Conditions: time 25 hrs. In general terms: Nitrite, measured by Griess reagent, commonly stands in for NO production.
As usually defined, the inhibition is the percentage by which the read-out fell short of the control. A high value points to a response far below the control. With `O=S(=O)(Nc1cccc(NS(=O)(=O)c2cccc3cccnc23)c1)c1ccc(Br)cc1`, the inhibition at 30 µM worked out at 20.2%. On the same count and under the same terms, the value for `O=S(=O)(Nc1cccc(NS(=O)(=O)c2cccc3cccnc23)c1)c1ccc(C(F)(F)F)cc1` was 40.6%; that for `O=S(=O)(Nc1cccc(NS(=O)(=O)c2cccc3cccnc23)c1)c1cccc(C(F)(F)F)c1` was 23.9%; that for `O=S(=O)(Nc1cccc(NS(=O)(=O)c2cccc3cccnc23)c1)c1ccc(F)cc1` was 19%. Same read-out and setting: the value for `CC(C)c1ccc(S(=O)(=O)Nc2cccc(NS(=O)(=O)c3cccc4cccnc34)c2)cc1` was 41.5%; that for `O=S(=O)(Nc1cccc(NS(=O)(=O)c2cccc3cccnc23)c1)c1ccc(Cl)cc1` was 6.7%. On the same count and under the same terms, as for `CC(C)(C)c1ccc(S(=O)(=O)Nc2cccc(NS(=O)(=O)c3cccc4cccnc34)c2)cc1`, the figure is 39.3%.

`Cc1ccc(S(=O)(=O)Nc2cccc(NS(=O)(=O)c3cccc4cccnc34)c2)cc1`: the inhibition at 30 µM stood at 11.4%. Still for that read-out and setting: the value for `O=S(=O)(Nc1cccc(NS(=O)(=O)c2cccc3cccnc23)c1)c1ccccc1C(F)(F)F` was 22%; that for `O=S(=O)(Nc1cccc(NS(=O)(=O)c2cccc3cccnc23)c1)c1cccc(Br)c1` was 31.1%. Same read-out and setting: as for `O=S(=O)(Nc1cccc(NS(=O)(=O)c2cccc3cccnc23)c1)c1c(F)cccc1F`, the figure is 23.6%; as for `O=S(=O)(Nc1cccc(NS(=O)(=O)c2cccc3cccnc23)c1)c1ccccc1OC(F)(F)F`, 13.2%. Still for that read-out and setting: as for `O=[N+]([O-])c1cccc(S(=O)(=O)Nc2cccc(NS(=O)(=O)c3cccc4cccnc34)c2)c1`, the figure is 28%; as for `O=S(=O)(Nc1cccc(NS(=O)(=O)c2cccc3cccnc23)c1)c1ccccc1F`, 30.2%. `O=S(=O)(Nc1cccc(NS(=O)(=O)c2cccc3cccnc23)c1)c1cccc(F)c1` registered an inhibition at 30 µM of 17.8%. The compound `COc1ccc(S(=O)(=O)Nc2cccc(NS(=O)(=O)c3cccc4cccnc34)c2)c(OC)c1` yielded an inhibition at 30 µM of 12.8%.

`O=S(=O)(Nc1cccc(NS(=O)(=O)c2cccc3cccnc23)c1)c1ccc(I)cc1` displayed an inhibition at 30 µM of 39.5%. The compound `O=S(=O)(Nc1cccc(NS(=O)(=O)c2cccc3cccnc23)c1)c1ccccc1Cl` returned an inhibition at 30 µM of 12.1%.

As to `O=S(=O)(Nc1cccc(NS(=O)(=O)c2cccc3cccnc23)c1)c1cc(Cl)cc(Cl)c1`, the inhibition at 30 µM was found to be 29%. Regarding `O=S(=O)(Nc1cccc(NS(=O)(=O)c2cccc3cccnc23)c1)c1ccc(OC(F)(F)F)cc1`, testing at 30 µM gave an inhibition of 31.6%. Still for that read-out and setting: as for `O=S(=O)(Nc1cccc(NS(=O)(=O)c2cccc3cccnc23)c1)c1ccccc1`, the figure is 23.8%; as for `COc1ccc(Br)cc1S(=O)(=O)Nc1cccc(NS(=O)(=O)c2cccc3cccnc23)c1`, 16.3%; as for `COc1ccc(S(=O)(=O)Nc2cccc(NS(=O)(=O)c3cccc4cccnc34)c2)cc1OC`, 32.3%.

For the compound `O=S(=O)(Nc1cccc(NS(=O)(=O)c2cccc3cccnc23)c1)c1ccccc1Br`, the inhibition at 30 µM was found to be 23.6%. The same measure, in the same setting: the value for `CC(=O)Nc1ccc(S(=O)(=O)Nc2cccc(NS(=O)(=O)c3cccc4cccnc34)c2)cc1` was 7.74%; that for `N#Cc1ccc(S(=O)(=O)Nc2cccc(NS(=O)(=O)c3cccc4cccnc34)c2)cc1` was 25.2%; that for `O=S(=O)(Nc1cccc(NS(=O)(=O)c2cccc3cccnc23)c1)c1c(Cl)cccc1Cl` was 24.7%. Still for that read-out and setting: the value for `COc1ccc2c(c1)c(CC(=O)O)c(C)n2C(=O)c1ccc(Cl)cc1` [INDOMETHACIN] was 42.5%.
